Biological target: T1, α4β7 (adhesion of RPMI cells to CS-1) (Homo sapiens, UniProt P13612+P26010)
T1 construct: endogenous in cells
T1 sequence (P13612 34-1032): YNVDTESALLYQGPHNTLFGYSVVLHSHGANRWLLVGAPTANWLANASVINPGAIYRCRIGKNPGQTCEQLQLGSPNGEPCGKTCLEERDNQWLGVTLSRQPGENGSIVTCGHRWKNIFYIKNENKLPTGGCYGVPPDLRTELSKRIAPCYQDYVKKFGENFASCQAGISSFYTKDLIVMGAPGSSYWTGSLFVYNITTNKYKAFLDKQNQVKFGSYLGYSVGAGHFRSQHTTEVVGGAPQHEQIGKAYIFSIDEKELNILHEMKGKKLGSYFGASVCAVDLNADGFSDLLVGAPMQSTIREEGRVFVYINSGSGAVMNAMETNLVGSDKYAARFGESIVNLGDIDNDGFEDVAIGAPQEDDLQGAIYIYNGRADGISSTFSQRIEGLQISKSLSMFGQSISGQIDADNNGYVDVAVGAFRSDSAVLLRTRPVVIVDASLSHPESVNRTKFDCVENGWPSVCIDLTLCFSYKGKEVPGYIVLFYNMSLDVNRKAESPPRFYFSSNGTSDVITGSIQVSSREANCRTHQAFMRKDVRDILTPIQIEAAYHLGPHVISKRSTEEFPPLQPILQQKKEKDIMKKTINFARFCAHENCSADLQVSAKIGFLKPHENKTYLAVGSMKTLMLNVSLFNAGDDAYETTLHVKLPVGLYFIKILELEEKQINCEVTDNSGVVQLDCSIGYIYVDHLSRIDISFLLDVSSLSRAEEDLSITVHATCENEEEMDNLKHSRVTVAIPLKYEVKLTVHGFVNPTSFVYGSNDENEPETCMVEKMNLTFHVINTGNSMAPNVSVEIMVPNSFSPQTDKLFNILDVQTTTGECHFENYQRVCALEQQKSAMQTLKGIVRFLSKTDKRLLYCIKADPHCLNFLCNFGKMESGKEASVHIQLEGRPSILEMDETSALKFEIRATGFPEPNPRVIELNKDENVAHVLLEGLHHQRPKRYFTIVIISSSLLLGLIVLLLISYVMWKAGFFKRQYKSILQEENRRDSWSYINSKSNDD
T1 sequence (P26010 20-798): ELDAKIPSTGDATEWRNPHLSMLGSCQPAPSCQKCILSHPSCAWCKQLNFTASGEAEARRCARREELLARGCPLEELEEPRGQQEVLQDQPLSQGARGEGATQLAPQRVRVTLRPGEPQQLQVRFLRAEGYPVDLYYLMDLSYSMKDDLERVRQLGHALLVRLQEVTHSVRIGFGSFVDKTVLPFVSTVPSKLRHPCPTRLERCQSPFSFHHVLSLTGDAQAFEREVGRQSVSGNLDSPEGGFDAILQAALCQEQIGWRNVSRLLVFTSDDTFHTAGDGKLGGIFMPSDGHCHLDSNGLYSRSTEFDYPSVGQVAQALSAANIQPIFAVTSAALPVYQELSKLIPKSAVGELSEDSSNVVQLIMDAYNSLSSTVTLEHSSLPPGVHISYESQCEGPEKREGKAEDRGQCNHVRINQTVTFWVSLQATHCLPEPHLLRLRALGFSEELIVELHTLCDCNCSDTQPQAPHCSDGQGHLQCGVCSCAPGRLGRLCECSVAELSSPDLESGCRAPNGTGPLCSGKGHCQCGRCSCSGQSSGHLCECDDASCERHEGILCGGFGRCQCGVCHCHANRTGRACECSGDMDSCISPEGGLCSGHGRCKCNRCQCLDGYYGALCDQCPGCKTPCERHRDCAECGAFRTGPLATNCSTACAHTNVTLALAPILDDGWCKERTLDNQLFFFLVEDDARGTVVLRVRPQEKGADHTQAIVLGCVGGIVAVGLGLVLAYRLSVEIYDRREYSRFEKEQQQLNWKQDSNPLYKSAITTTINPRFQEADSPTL
Experiment: RPMI-CS-1 cell adhesion assay
Assay type: cell-based
Conditions: adhesion of RPMI B-cell line (expresses α4β7) to CS-1 peptide coated microwells; read-out: RPMI-CS-1 IC50 value range
Procedure: RPMI-CS-1 Cell Adhesion Assay:
The test compounds were added in increasing concentrations to RPMI cells and then the cell-compound mixture was added to CS-1 coated microwells. The plates were incubated, washed and the percentage of attached cells were quantitated.
The CS-1 derived peptide, […], and the scrambled control peptide, […], were synthesized at Tanabe Research Laboratories, USA, Inc. on a Beckman 990 synthesizer using t-Boc methodology. […] Microtiter plates were coated with 20 μg/ml human serum albumin (HSA) for 2 hours at room temperature, washed once with PBS and derivatized with 10 μg/ml SPDP for 1 hour. […] Unbound peptide was removed from the plates by washing with PBS. To block non-reacted sites, the plates were coated with 100 μl of a 2.5 mg/ml BSA solution in PBS for one hour at 37° C. 100 μl of RPMI cells (2.5×10^6 cells/ml) in Dulbecco's Modified Eagles Medium (DMEM) plus 0.25% ovalbumin were added to peptide coated dishes and incubated for 1 hour at 37° C. […] To do this, the enzyme substrate p-nitrophenyl-N-acetyl-β-D-glucoseaminide is dissolved at 7.5 mM in 0.1 M citrate buffer pH 5 and then mixed with an equal volume of 0.5% Triton X100. 50 μl of the substrate solution was added to the plates and the plates were incubated at 37° C. for 60 minutes.
In this assay, IC50 value ranges (μM) are depicted by A, B, C and D. These ranges as follows. D>5≧C>1≧B>0.3≧A

Molecule | IC50 [nM]
Cc1ccc(-c2ccc(C[C@H](NC(=O)c3c(Cl)cccc3Cl)C(=O)O)cc2)cc1 [Example 117] | 1000 to 5000
COC(=O)[C@H](Cc1ccc(-c2ccccc2OC)cc1)NC(=O)c1c(Cl)cccc1Cl [Example 1A, N-(2,6-Dichlorobenzoyl)-4-(2-methoxyphenyl)-L-phenylalanine methyl ester] | 300 to 1000
COc1ccccc1-c1ccc(C[C@H](NC(=O)c2c(Cl)cc(NS(=O)(=O)C(F)(F)F)cc2Cl)C(=O)O)cc1 [Example 182, N-[2,6-Dichloro-4-[(trifluoromethanesulfonyl)amino]benzoyl]-4-(2-methoxyphenyl)-L-phenylalanine] | < 300
CNS(=O)(=O)c1ccccc1-c1ccc(C[C@H](NC(=O)c2c(Cl)cccc2Cl)C(=O)O)cc1 [Example 20, N-(2,6-Dichlorobenzoyl)-4-[2-(N-methylsulfamoyl)phenyl]-L-phenylalanine] | < 300
COc1ccccc1-c1ccc(C[C@H](NC(=O)c2ccc(N)cc2Cl)C(=O)O)cc1 [Example 63, N-(4-Amino-2-chlorobenzoyl)-4-(2-methoxyphenyl)-L-phenylalanine] | 300 to 1000
COc1ccccc1-c1ccc(C[C@H](NC(=O)c2ccc(NC(C)=O)cc2Cl)C(=O)O)cc1 [Example 67, N-[2-Chloro-4-(acetylamino)benzoyl]-4-(2-methoxyphenyl)-L-phenylalanine] | 300 to 1000
COc1ccccc1-c1ccc(C[C@H](NC(=O)c2ccccc2Br)C(=O)O)cc1 [Example 96] | 300 to 1000
COc1cccc(O)c1-c1ccc(C[C@H](NC(=O)c2c(Cl)cccc2Cl)C(=O)O)cc1 [Example 31, N-(2,6-Dichlorobenzoyl)-4-(2-hydroxy-6-methoxyphenyl)-L-phenylalanine] | < 300
COc1ccccc1-c1ccc(C[C@H](NC(=O)c2ccc(Cl)cc2Cl)C(=O)O)cc1 [Example 84] | 1000 to 5000
N-(2,6-Dichlorobenzoyl)-4-(2,6-dimethoxyphenyl)-L-phenylalanine 2-pyridylmethyl ester [Example 272] | 300 to 1000
O=C(N[C@@H](Cc1ccc(-c2c(O)ccc3c2OCO3)cc1)C(=O)O)c1c(Cl)cccc1Cl [Example 236, N-(2,6-Dichlorobenzoyl)-4-(2,3-methylenedioxy-6-hydroxyphenyl)-L-phenylalanine] | < 300
N#CCOc1ccc2c(c1-c1ccc(C[C@H](NC(=O)c3c(Cl)cccc3Cl)C(=O)O)cc1)OCO2 [Example 239, N-(2,6-Dichlorobenzoyl)-4-[2,3-methylenedioxy-6-(cyanomethoxy)phenyl]-L-phenylalanine] | < 300
O=C(N[C@@H](Cc1ccc(-c2c(Cl)cccc2Cl)cc1)C(=O)O)c1c(Cl)cccc1Cl [Example 141] | 300 to 1000
CSc1ccccc1-c1ccc(C[C@H](NC(=O)c2c(Cl)cccc2Cl)C(=O)O)cc1 [Example 143] | < 300
COc1ccccc1-c1ccc(C[C@H](NC(=O)c2c(Cl)cccc2Cl)C(=O)O)cc1 [Example 8, N-(2,6-Dichlorobenzoyl)-4-(2-methoxyphenyl)-L-phenylalanine] | < 300
COc1ccccc1-c1ccc(C[C@H](NC(=O)c2ccc([N+](=O)[O-])cc2Cl)C(=O)O)cc1 [Example 62, N-(2-Chloro-4-nitrobenzoyl)-4-(2-methoxyphenyl)-L-phenylalanine] | < 300
COc1ccccc1-c1ccc(C[C@H](NC(=O)c2ccc(NC(=S)NC(C)C)cc2Cl)C(=O)O)cc1 [Example 195] | 300 to 1000
COC(=O)[C@H](Cc1ccc(-c2ccccc2CNCc2ccccc2)cc1)NC(=O)c1c(Cl)cccc1Cl [Example 114] | 300 to 1000
COc1ccccc1-c1ccc(C[C@H](NC(=O)c2ccccc2NC(=O)c2c(Cl)cccc2Cl)C(=O)O)cc1 [Example 106] | 1000 to 5000
COc1cc(CN2CCC3(CC2)OCCO3)cc(OC)c1-c1ccc(C[C@H](NC(=O)c2c(Cl)cccc2Cl)C(=O)O)cc1 [Example 244] | < 300
CNC(=S)Nc1ccc(C(=O)N[C@@H](Cc2ccc(-c3ccccc3OC)cc2)C(=O)O)c(Cl)c1 [Example 70, N-[2-Chloro-4-(3-methylthioureido)benzoyl]-4-(2-methoxyphenyl)-L-phenylalanine] | < 300
CCCN1CCN(Cc2cc(OC)c(-c3ccc(C[C@H](NC(=O)c4c(Cl)cccc4Cl)C(=O)O)cc3)c(OC)c2)CC1 [Example 252] | < 300

Now from value to molecule:

IC50 [nM] | Molecule
1000 to 5000 | COc1cccc(OC)c1-c1ccc(C[C@H](NC(=O)c2c(Cl)cccc2Cl)C(=O)OCc2ccncc2)cc1 [Example 274, N-(2,6-Dichlorobenzoyl)-4-(2,6-dimethoxyphenyl)-L-phenylalanine 4-pyridylmethyl ester]
< 300 | COc1cc(OCc2ccccn2)cc(OC)c1-c1ccc(C[C@H](NC(=O)c2c(Cl)cccc2Cl)C(=O)O)cc1 [Example 349]
< 300 | COc1cccc(OC)c1-c1ccc(C[C@H](NC(=O)c2c(Cl)cc(-c3cccnc3)cc2Cl)C(=O)O)cc1 [Example 311]
> 5000 | COc1cccc(OC)c1-c1ccc(C[C@H](NC(=O)c2c(Cl)cccc2Cl)C(=O)NS(C)(=O)=O)cc1 [Example 267, N-(2,6-Dichlorobenzoyl)-4-(2,6-dimethoxyphenyl)-L-phenylalanine N-(methylsulfonyl)amide]
300 to 1000 | COc1cccc(OC)c1-c1ccc(C[C@H](NC(=O)c2c(Cl)cccc2Cl)C(=O)O)cc1N1CCCC1=O [Example 300, N-(2,6-dichlorobenzoyl)-3-(2-oxo-1-pyrrolidinyl)-4-(2,6-dimethoxyphenyl)-L-phenylalaine]
< 300 | COc1cccc(OC)c1-c1ccc(C[C@H](NC(=O)c2ccc(OC(C)C)cc2Cl)C(=O)O)cc1 [Example 285]
< 300 | COc1cc(CN2CCS(=O)(=O)CC2)cc(OC)c1-c1ccc(C[C@H](NC(=O)c2c(Cl)cccc2Cl)C(=O)O)cc1 [Example 263A, N-(2,6-dichlorobenzoyl)-4-[2,6-dimethoxy-4-(thiomorpholinomethyl)phenyl]-L-phenylalanine S,S-dioxide]
> 5000 | COc1cccc(OC)c1-c1ccc(C[C@H](NC(=O)c2c(Cl)cccc2Cl)C(=O)OC2CCCCC2)cc1 [Example 276, N-(2,6-Dichlorobenzoyl)-4-(2,6-dimethoxyphenyl)-L-phenylalanine cyclohexyl ester]
300 to 1000 | CCOC(=O)Nc1cc(C[C@H](NC(=O)c2c(Cl)cccc2Cl)C(=O)O)ccc1-c1ccccc1OC [Example 345]
< 300 | COc1cccc(OC)c1-c1ccc(C[C@H](NC(=O)c2c(Cl)cc(-c3cccs3)cc2Cl)C(=O)O)cc1 [Example 316]
